Laboratory results as given in patent US9895303B2, “Peptide, method and composition for stimulating melanogenesis” (Renorigin Innovation Institute Co., Ltd., priority 2016, dated 2018).

Experiments:
Type in all cases: cell-based, murine
[1] = tested on: B16F10 melanoma cells; test: Visual pigmentation of B16F10 cells and culture medium; settings: 10-50 μg/ml, 5 days, medium change at day 3
Procedure: B16F10 melanoma cells were treated with 10-50 μg/ml peptide of SEQ ID NO: 1 (“Lf B-17-34”) for 5 days with a medium change at day 3. The cells and medium were recovered in test tubes. Kojic acid is used as negative control in the cellular study due to known inhibitory effects on tyrosinase activity. IBMX is used as positive control in the cellular study due to known elevator of cellular cAMP level, to stimulate melanogenesis.
(§1) B16F10 murine melanoma cells were cultured in phenol red-free DMEM with 10% fetal bovine serum and penicillin/streptomycin (100 IU/50 […]) in a humidified atmosphere containing 5% CO2 in air at 37° C.

[2] = tested on: Tyrosinase; test: Tyrosinase assay (cell lysate, L-DOPA); settings: B16F10 cells, 10-50 μg/ml, 5 days
Procedure: as §1
Tyrosinase is the rate limiting enzyme in the melanogenic pathway. Its measurement provides a highly specific and sensitive indication of degree of induction of melanogenesis. Tyrosinase enzyme activity of cultured B16F10 cells were measured according to the method of (Bellei et al., J Biol Chem 285, 7288-7299, 2010) with a slight modification. Briefly, B16F10 cells were seeded in 6-well plate (2×10^4 cells/well) and incubated overnight to allow cells to adhere. After treating with various test samples in an incubator for 5 days, cells were washed with PBS and then harvested using trypsin. At the end point, the cells were solubilized with phosphate buffer (pH 6.8) containing 1% Triton X-100. The cells were then disrupted by freezing and thawing, and the lysates were clarified by centrifugation at 10,000×g for 10 min. After protein quantification and adjustment of protein concentrations with lysis buffer, 100 μl of each lysate (each containing the same amount of protein) were aliquoted into the wells of a 96-well plate, and 100 μl of 5 mM L-DOPA were then added to each well. The absorbance was measured spectrophotometrically at 475 nm following a […] incubation period at 37° C. […]

[3] = tested on: Tyrosinase; test: DOPA staining; settings: B16F10 cells, 10-50 μg/ml, 4 days
Procedure: as §1
DOPA staining was also performed to measure tyrosinase enzyme activity. B16F10 cells were seeded in 6-well plate (2×10^4 cells/well) and incubated overnight to allow cells to adhere. After treating with various test samples in an incubator for 4 days, cells were washed with PBS, fixation with 2% paraformaldehyde and washing with PBS a further three times, the cells were incubated with 0.1% DOPA (dissolved in 0.1 M PBS) at 37° C. for 5 hour, and observed using light microscopy (Wang et al., Exp Ther Med 6, 967-972, 2013).

[4] = tested on: B16F10 cells; test: Melanin content assay; settings: 10-50 μg/ml, 5 days
Procedure: as §1
Melanin contents of cultured B16F10 cells were measured according to the method (Lee et al., J Invest Dermatol 124, 405-411, 2005) with a slight modification. Briefly, B16F10 cells were seeded in 6-well plate (2×10^4 cells/well) and incubated overnight to allow cells to adhere. After treating with various test samples in an incubator for 5 days, washed, trypsinized and counted before pelleting. Melanin per cell was quantified after boiling in 1 M NaOH for 1 hour and melanin content in each sample was read from a calibration curve against synthetic eumelanin at 400 nm and converted to means±SE melanin pg/cell from 3 independent experiments.

DOPA staining [3]: strong DOPA staining
Sequence: FKCRRWQWRMKKLGAPSI (listed as Bos taurus) [Lf B-17-34]
pigmentation in cells and in medium [1]: hyper pigmentation in cells as in medium to a similar extent
tyrosinase activity [2]: significantly increased tyrosinase activity
melanin synthesis (melanin content in cells, melanin secretion in medium) [4]: significantly increased melanin synthesis in a concentration-dependent manner
